Read-outs that look alike come from different tables or passages of the source.
Experiments:
Assay type in all cases: cell-based
human SGLT1 [1] = target: T1, human SGLT1 (Homo sapiens, UniProt P13866); assay: SGLT activity (membrane translocation) by fluorescence resonance energy transfer (FRET); conditions: for transport through hSGLT1 (FRET): result in words; for fluorescence signal ratios: hSGLT1 in CHO cells, 10 µm thioglucoside, normalized to non-transfected CHO cells, ratio higher than 1 = transported, n=16
T1 construct: expressed in transfected cells; host or cells: CHO (Chinese hamster ovary) cells, stably transfected
T1 sequence (P13866 1-664): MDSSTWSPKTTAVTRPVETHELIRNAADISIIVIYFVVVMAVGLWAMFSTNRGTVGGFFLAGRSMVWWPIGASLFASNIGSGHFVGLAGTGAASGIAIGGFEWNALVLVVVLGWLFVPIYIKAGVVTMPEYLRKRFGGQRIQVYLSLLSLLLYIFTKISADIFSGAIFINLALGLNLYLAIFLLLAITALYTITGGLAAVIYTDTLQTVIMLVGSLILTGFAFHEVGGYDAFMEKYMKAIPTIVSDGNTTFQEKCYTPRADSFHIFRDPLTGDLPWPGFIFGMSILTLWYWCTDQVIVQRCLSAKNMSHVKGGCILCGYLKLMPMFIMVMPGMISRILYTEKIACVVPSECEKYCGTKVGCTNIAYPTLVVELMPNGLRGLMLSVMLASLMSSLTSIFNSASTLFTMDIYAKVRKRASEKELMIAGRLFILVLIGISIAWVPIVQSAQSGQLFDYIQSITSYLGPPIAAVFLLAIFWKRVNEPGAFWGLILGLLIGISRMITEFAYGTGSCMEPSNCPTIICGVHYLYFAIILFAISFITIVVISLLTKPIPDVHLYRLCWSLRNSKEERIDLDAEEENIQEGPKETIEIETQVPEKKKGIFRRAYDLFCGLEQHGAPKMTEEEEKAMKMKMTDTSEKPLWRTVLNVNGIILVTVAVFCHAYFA
Protocol: (§1) Stable transfected Chinese hamster ovary (CHO) cells that express human SGLT1 or human SGLT2 were seeded at a concentration of […] and maintained in culture for 2 days to allow the cells to form a confluent monolayer culture. For transport studies cells were seeded in 96-well microtiter scintiplates (PerkinElmer, Weisbaden, German). For fluorescence resonance energy transfer (FRET) analysis cells were seeded in flat-bottom, poly-D-lysine black-wall, clear bottom, 96-well plates (Becton Dickinson; Heidelberg, Germany).
(§2) SGLT activity, as indicated by membrane translocation, was assessed using fluorescence resonance energy transfer (FRET). Cells were incubated for 48 hours ar 37°C in a 5% CO2 atmosphere in growth medium. Cells were washed with 0.2 ml Dulbecco's phosphate-buffered saline (Invitrogen, Karlsruhe, Germany) and then incubated with 0.1 ml of a solution containing 5 µm CC2-DMPE and 0.02% pluronic acid in PBS. After incubation in the dark for 30 min at 25°C, cells were washed twice with 0.2 ml PBS. Afterwards, cells were incubated in the dark at 25°C for 30 minutes with 0.1 ml of a solution containing […] DiSBAC2(3). A t the end of the incubation period 1 mM of each thioglucoside was added and excited by 390 nm. Fluorescence emission was recorded at 460 and 580 nm. After a 20 second baseline reading, 0.1 ml of PBS containing 10 µM of each compound was added, and the fluorescence was calculated as the ratio F/F0 = [(A460/A580)/(I460/I580)] where A and I represent the reading after or before addition of each thioglucoside, respectively. For I, the readings form 2-5 seconds were averaged; and for A, readings from 3 seconds after the signal that had reached a plateau level (usually within 2-5 seconds) were also averaged. FRET values were expressed as relative fluorescence units (RFU).
(§3) The activity of the sodium-dependent D-glucose cotransport system was studied by changes in membrane potential induced by each of the eight thioglucosides (see Table 1) (10 µm). FRET values were normalized using the fluorescence signal obtained from non-transfected CHO cells.

human SGLT2 [2] = target: T2, human SGLT2 (Homo sapiens, UniProt P31639); assay: as above; conditions: for transport through hSGLT2 (FRET): result in words; for fluorescence ratios: hSGLT2 in CHO cells, 10 µm thioglucoside, normalized to non-transfected CHO cells, ratio higher than 1 = transported, n=16
T2 construct: expressed in transfected cells; host or cells: CHO (Chinese hamster ovary) cells, stably transfected
T2 sequence (P31639 1-672): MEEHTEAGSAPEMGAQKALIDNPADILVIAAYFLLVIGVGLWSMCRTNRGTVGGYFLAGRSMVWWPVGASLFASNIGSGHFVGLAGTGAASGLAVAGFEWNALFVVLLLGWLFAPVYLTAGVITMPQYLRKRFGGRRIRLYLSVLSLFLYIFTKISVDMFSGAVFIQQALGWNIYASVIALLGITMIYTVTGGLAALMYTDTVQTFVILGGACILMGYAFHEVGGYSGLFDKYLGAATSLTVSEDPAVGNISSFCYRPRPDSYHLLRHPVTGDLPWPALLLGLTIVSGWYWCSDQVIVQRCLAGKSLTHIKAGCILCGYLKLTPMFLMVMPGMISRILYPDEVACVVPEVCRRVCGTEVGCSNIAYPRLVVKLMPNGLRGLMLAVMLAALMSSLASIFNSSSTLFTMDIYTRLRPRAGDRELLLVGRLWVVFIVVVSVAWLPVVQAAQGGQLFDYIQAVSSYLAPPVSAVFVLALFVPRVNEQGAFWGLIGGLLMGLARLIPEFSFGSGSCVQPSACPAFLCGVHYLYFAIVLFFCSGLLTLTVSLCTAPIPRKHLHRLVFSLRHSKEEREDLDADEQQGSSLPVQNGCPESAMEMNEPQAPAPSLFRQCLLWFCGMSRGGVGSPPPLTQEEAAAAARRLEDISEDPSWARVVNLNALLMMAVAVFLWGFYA
Protocol: as §1, §2, §3

human SGLT1 [3] = target: T1, human SGLT1; assay: Inhibition of sodium-dependent D-glucose transport, [14C]AMG-uptake; conditions: for Ki: apparent inhibitory constant, Dixon plot; for inhibitory effect, hSGLT1 compared with hSGLT2: [14C]AMG-uptake, 10µM, n=16, p<0.001, result in words
Protocol: as §1
(§4) Sodium-dependent D-glucose transport was determined by means of α-methyl [^14C]D-glucopyranoside ([^14C]AMG, spec. Radioactivity 300 mCi/mmol) purchased from NEN (Bad Homburg, Germany). For the purpose of this study, Krebs-Ringer-Henseleit (KRH) solution containing 120 mM NaCl, 4.7 mM KCI, 1.2 mM MgCl2, 2.2 mM CaCl2, 10 mM Hepes (pH 7.4 with Tris) was used to assess sodium-dependent D-glucose transport. For sodium free conditions, KRH solution containing 120 mM N-methyl-glucamine (NMG) instead of NaCl (Na^+) was used to assess sodium-independent D-glucose transport. All chemicals were purchased from Sigma (Deisenhof, Germany).
(§5) Briefly, cells were rinsed three times with 200 µl KRH-Na^+ or KRH-NMG. Then, 100 µl per well of transport buffer containing KRH-NA^+ or KRH-NMG plus [^14C]AMG (0.1 µCi/µl) were added and incubated for 1 hour. […] Then, the cells were solubilized by adding 100 µl of ATPlite substrate solution (PerkinElmer, Boston, USA) and luminescence ATP detection was assessed using a MicroBeta Trilux (PerkinElmer). A standard curve was used to determine the amount of ATP as mg of protein. After 24 hours the microtiter plate was taken for scintillation counting of radioactive [^14C]AMG-uptake using a MicroBeta Trilux (PerkinElmer). Subsequently, the mean counts per minute (cpm) were calculated and converted to […] (pmol). The obtained radioactive counts were expressed as pmol/mg/hour. Sodium-dependent [14C]AMG-uptake was calculated by subtracting uptake under sodium-free conditions from the uptake obtained in the presence of sodium.
(§6) The inhibitory effect on SGLT transport was also analyzed by IC50 values. Dixon plot analysis was used for both estimation of the inhibition constant (Ki) and for identification of the mechanism of enzyme inhibition. Ki was determined by the point of intersection of two different substrate concentrations. Plots of the reciprocal of rate of metabolite formation (1/Rate) versus inhibitor concentration at each substrate concentration were prepared.

human SGLT2 [4] = target: T2, human SGLT2; assay: as above; conditions: hSGLT2; for Ki: apparent inhibitory constant, Dixon plot
Protocol: as §1, §4, §5, §6

| Ki (human SGLT1 [3]; hSGLT1, read-out: Ki) [nM] | IC50 (human SGLT1 [3]; hSGLT1, read-out: IC50) [µM] | SMILES | transport through hSGLT1 (FRET) (human SGLT1 [1]) | transport through hSGLT2 (FRET) (human SGLT2 [2]) | IC50 (human SGLT1 [3]) [µM] | Ki (human SGLT1 [3]; Ki, hSGLT1) [nM] | inhibitory effect, hSGLT1 compared with hSGLT2 (human SGLT1 [3]) | IC50 (human SGLT2 [4]) [µM] | Ki (human SGLT2 [4]) [nM] | fluorescence signal ratios (human SGLT1 [1]) | fluorescence ratios (human SGLT2 [2]) | inhibition at 10 µM (human SGLT2 [4]; 10µM, n=16) [%] | inhibition at 10 µM (human SGLT1 [3]; read-out: [14C]AMG-uptake, % inhibition) [%] |
| --- | --- | --- | --- | --- | --- | --- | --- | --- | --- | --- | --- | --- | --- |
| – | – | OCc1ccccc1S[C@@H]1O[C@H](CO)[C@@H](O)[C@H](O)[C@H]1O [Thioglucoside 2, 2-Hydroxymethyl-phenyl-1'-thio-β-D-glucopyranoside] | not transported | not transported | 41 | 383000 | stronger for hSGLT1 | 9 | 10 | – | – | – | – |
| – | – | Cc1ccc(S[C@@H]2O[C@H](CO)[C@@H](O)[C@H](O)[C@H]2O)cc1 [Thioglucoside 7, p-Tolyl-1'-thio-β-D-glucopyranoside] | significantly transported | significantly transported | 52 | 23000 | – | 32 | 175000 | 2.64 | 4.22 | > 70 | – |
| 100 | 35 | C/C(=C\CC/C(C)=C/CS[C@@H]1O[C@H](CO)[C@@H](O)[C@H](O)[C@H]1O)CO [Thioglucoside 1, 8-Hydroxygeranol-1'-thio-β-D-glucopyranoside] | not transported | not transported | – | – | stronger for hSGLT1 | 12 | 30 | – | – | – | – |
| – | – | O=C(CCc1ccc(O)cc1)c1c(O)cc(O)cc1O[C@@H]1O[C@H](CO)[C@@H](O)[C@H](O)[C@H]1O [phlorizin, reference compound] | – | not transported | – | – | – | – | – | – | – | – | – |
| – | – | OCc1cccc(S[C@@H]2O[C@H](CO)[C@@H](O)[C@H](O)[C@H]2O)c1 [Thioglucoside 5, 3-Hydroxymethyl-phenyl-1'-thio-β-D-glucopyranoside] | – | – | 47 | 120 | – | 12 | 20 | 1.01 | – | – | – |
| – | – | OC[C@H]1O[C@@H](Sc2ccccc2)[C@H](O)[C@@H](O)[C@@H]1O [Thioglucoside 3, Phenyl-1'-thio-β-D-glucopyranoside] | significantly transported | significantly transported | 4 | 80 | stronger for hSGLT1 | 16 | 135000 | 1.15 | 1.21 | – | – |
| – | – | OCc1ccccc1S[C@@H]1O[C@H](CO)[C@H](O)[C@H](O)[C@H]1O [Thioglucoside 6, 2-Hydroxymethyl-phenyl-1'-thio-β-D-galactopyranoside] | – | – | 120 | 140000 | – | 15 | 10 | – | 1.32 | – | – |
| – | – | Cc1ccccc1S[C@@H]1O[C@H](CO)[C@@H](O)[C@H](O)[C@H]1O [Thioglucoside 4, o-Tolyl-1'-thio-β-D-glucopyranoside] | significantly transported | significantly transported | 30 | 280 | stronger for hSGLT1 | 18 | 132000 | – | 1.63 | – | > 70 |
| – | – | Cc1cccc(S[C@@H]2O[C@H](CO)[C@@H](O)[C@H](O)[C@H]2O)c1 [Thioglucoside 8, m-Tolyl-1'-thio-β-D-glucopyranoside] | not transported | not transported | 40 | 170 | – | 11 | 20 | – | – | – | – |
